# Data as given in patent US20250034216A1, “STEREOSELECTIVE COVALENT LIGANDS FOR ONCOGENIC AND IMMUNOLOGICAL PROTEINS” (The Scripps Research Institute, priority 2021, published 2025).
# What was measured:
# Experiment in all cases: IA-DTB cysteine engagement
# Format in all cases: binding
# Conditions in all cases: 22Rv1 cells, 20 μM probe, 1 h, relative to DMSO
# [1] = target: T1, HARS2_C175 (Homo sapiens, UniProt P49590)
# T1 construct: endogenous in cells; host or cells: 22Rv1
# T1 sequence (P49590 34-506): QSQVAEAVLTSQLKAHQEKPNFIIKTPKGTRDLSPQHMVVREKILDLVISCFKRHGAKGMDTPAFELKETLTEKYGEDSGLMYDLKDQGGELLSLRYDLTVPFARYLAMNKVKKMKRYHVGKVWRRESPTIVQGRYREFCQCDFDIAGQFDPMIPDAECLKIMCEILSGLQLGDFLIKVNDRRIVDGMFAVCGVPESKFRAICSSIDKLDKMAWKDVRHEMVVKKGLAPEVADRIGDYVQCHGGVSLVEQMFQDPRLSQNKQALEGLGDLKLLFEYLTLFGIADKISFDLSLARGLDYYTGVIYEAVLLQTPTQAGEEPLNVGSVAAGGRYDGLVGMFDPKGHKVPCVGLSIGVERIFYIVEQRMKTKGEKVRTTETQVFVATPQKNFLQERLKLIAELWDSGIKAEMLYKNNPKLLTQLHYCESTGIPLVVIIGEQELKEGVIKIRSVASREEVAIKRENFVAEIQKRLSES
# Outline: (§1)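 Probe-exposed cells were lysed, IA-DTB-labeled, trypsinized and streptavidin-enriched. Multiplexed TMT quantitation gave engagement ratios versus DMSO, with non-tryptic peptides excluded and intensities normalized to median summed signal.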
# [2] = target: T2, SYNE2_C2994 (Homo sapiens, UniProt Q8WXH0)
# T2 construct: endogenous in cells; host or cells: 22Rv1
# Outline: as §1
# [3] = target: T3, TRPM4_C759 (Homo sapiens, UniProt Q8TD43)
# T3 construct: endogenous in cells; host or cells: 22Rv1
# T3 sequence (Q8TD43 whole entry): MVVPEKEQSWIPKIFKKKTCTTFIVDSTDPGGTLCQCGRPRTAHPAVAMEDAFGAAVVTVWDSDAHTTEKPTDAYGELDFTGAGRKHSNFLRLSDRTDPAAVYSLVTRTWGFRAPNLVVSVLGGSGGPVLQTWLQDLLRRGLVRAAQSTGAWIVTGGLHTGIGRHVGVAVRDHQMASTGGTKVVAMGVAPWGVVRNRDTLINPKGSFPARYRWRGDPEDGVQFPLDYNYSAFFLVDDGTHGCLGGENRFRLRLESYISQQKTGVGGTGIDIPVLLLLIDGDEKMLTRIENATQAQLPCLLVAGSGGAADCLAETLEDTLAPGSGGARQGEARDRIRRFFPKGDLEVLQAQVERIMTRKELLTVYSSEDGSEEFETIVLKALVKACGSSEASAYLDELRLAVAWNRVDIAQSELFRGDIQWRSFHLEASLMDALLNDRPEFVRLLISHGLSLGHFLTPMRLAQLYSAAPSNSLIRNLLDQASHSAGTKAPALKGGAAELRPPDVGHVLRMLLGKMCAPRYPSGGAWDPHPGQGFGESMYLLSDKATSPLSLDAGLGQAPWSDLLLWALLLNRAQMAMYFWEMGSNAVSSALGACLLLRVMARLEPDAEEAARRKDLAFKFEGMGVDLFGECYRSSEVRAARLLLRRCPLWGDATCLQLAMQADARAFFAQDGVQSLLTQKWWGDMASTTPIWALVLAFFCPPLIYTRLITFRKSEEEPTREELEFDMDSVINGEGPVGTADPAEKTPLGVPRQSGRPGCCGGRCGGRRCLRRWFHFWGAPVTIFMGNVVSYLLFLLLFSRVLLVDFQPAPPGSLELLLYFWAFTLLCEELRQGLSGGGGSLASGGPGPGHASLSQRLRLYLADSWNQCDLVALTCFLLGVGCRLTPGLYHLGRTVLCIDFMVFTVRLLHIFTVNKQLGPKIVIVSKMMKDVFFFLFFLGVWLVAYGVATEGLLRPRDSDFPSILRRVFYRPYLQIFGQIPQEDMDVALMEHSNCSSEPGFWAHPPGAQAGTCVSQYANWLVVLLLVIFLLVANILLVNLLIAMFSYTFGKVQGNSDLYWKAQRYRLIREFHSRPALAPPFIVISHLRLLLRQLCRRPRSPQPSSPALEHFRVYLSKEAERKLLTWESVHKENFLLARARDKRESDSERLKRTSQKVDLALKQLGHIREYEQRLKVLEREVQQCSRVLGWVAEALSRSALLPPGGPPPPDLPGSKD
# Outline: as §1
Structure (SMILES),% engagement HARS2_C175 [1] [%],% engagement SYNE2_C2994 [2] [%],% engagement TRPM4_C759 [3] [%]
"C=CC(=O)N1C[C@@H](c2ccc(Br)cc2)[C@H]1C(=O)Nc1cccc2cccnc12 [MY-1A, (2S,3R)-1-acryloyl-3-(4-bromophenyl)-N-(quinolin-8-yl)azetidine-2-carboxamide]",100,29.5,69.75
"C=CC(=O)N1C[C@H](c2ccc(Br)cc2)[C@@H]1C(=O)Nc1cccc2cccnc12 [MY-1B, (2R,3S)-1-acryloyl-3-(4-bromophenyl)-N-(quinolin-8-yl)azetidine-2-carboxamide]",67,75.75,48.75
"C=CC(=O)N1C[C@H](c2ccc(Br)cc2)[C@H]1C(=O)Nc1cccc2cccnc12 [MY-3A, (2S,3S)-1-acryloyl-3-(4-bromophenyl)-N-(quinolin-8-yl)azetidine-2-carboxamide]",11.5,11.25,50.25
"C=CC(=O)N1C[C@H](c2ccc(Br)cc2)[C@H]1C(=O)Nc1cccc2cccnc12 [MY-3B, (2S,3S)-1-acryloyl-3-(4-bromophenyl)-N-(quinolin-8-yl)azetidine-2-carboxamide]",44.5,37.5,76.25
